Results: patent publication US8765733B2, “Amine substituted methanesulfonamide derivatives as vanilloid receptor ligands” (Gruenenthal GmbH, priority 2011, dated 2014)

Molecular target: vanilloid receptor 1 (VR1/TRPV1 receptor) (Homo sapiens, UniProt Q8NER1)
Assay: FLIPR functional assay (Ca2+ influx, capsaicin) on the vanilloid receptor 1
Assay type: cell-based
Details: capsaicin (Cap) stimulus, compound at 5 μM

CC1CCN(c2nc(C(F)(F)F)ccc2CNC(=O)C(C)c2ccc(F)c(CNS(C)(=O)=O)c2)CC1 (centres unmarked) [Example 66, 2-(4-fluoro-3-(methylsulfonamidomethyl)phenyl)-N-((2-(4-methylpiperidin-1-yl)-6-(trifluoromethyl)pyridin-3-yl)methyl)propanamide]
inhibition at 5 µM (read-out: inhibition (as a percentage) Cap, (human being)): 58%

N-(2-fluoro-5-(3-((2-(4-methylpiperidin-1-yl)-6-(trifluoromethyl)pyridin-3-yl)methyl)ureido)benzyl)methanesulfonamide [Example 65]
inhibition (as a percentage) Cap, (human being): 12%@5 μM
